Measured values published in US8258099B2, “Pin1-modulating compounds and methods of use thereof” (Max-Planck-Gesellschaft zur Foerderung der Wissenschaften …, priority 2004, dated 2012).
Square brackets hold non-standard residues; d marks the D form. Peptide text beside a SMILES is read from it. d(pT) = C[C@H](OP(=O)(O)O)[C@@H](N)C(=O)O; 2Nal = N[C@@H](Cc1ccc2ccccc2c1)C(=O)O; Pip = O=C(O)[C@@H]1CCCCN1

What was measured:
[1] = molecular target: XlPin1; test: Protease free PPIase assay, XlPin1; format: biochemical, X. laevis
Procedure: Protein concentrations were determined using the extinction coefficient ε280=21030 M^−1 cm^−1 for hPin1, ε280=6979 M^−1 cm^−1 for the hPin1 PPIase domain, ε280=21030 M^−1 cm^−1 for XlPin1, ε280=8250 M^−1 cm^−1 for hPar14 and ε280=8250 M^−1 cm^−1 for hCyp18. Extinction coefficients were calculated using the program ProtParam Tool at ExPASy (SIB, Switzerland). All measurements were done at 10° C. in 35 mM Hepes buffer (pH 7.8).
The determination of the kinetic constants of the cis/trans isomerization within the protease-free system was performed using fluorescence based measurements (Garcia-Echeverria et al., 1993, Zhang et al., 2002) on a Hitachi F-3010 fluorescence spectrophotometer with H-Abz-Ala-Glu-Pro-Phe-NH-Np (SEQ ID NO: 2) as substrate. The substrate stock solution was 12 mM in anhydrous trifluoroethanol/0.55 M LiCl. […] The excitation wavelength was 320 nm (spectral bandwidth 3 nm) and emission was detected at 420 nm (spectral bandwidth 10 nm).
Data analysis was performed by single-exponential nonlinear regression using the SigmaPlot Scientific Graphing System Version 5.00 (Jandel Corp.). […] The rate constant k0 was determined in the absence of Pin1. The first order rate constants kenz was calculated from the equation kenz=kobs−k0. […]

[2] = molecular target: T1, interaction of MPM-2 antigens with GST-hPin1 (Homo sapiens, UniProt Q13526); test: MPM-2 competition assay; format: binding; settings: mitotic HeLa cell lysate, 8 μM GST-hPin1
T1 construct: made in house
T1 sequence (Q13526 whole entry): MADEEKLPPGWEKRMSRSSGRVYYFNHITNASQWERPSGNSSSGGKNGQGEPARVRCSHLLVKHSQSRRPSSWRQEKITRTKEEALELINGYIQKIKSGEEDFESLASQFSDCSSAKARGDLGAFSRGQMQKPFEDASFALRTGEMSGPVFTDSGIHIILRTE
Procedure: FIG. 7 depicts the influence of peptide 17 on the interaction of MPM-2 antigens with hPin1. The indicated concentration of peptide 17 or its nonphosphorylated derivative (control) was incubated with an 8 μM solution of GST-hPin1. After addition of mitotic HeLa cell lysate, GST-hPin1 was extracted from the respective mixture using glutathione sepharose. Samples were analyzed regarding extracted GST-hPin1 and coprecipitated MPM-2 antigenes by SDS PAGE and western blot analysis. Untreated lysate of mitotic HeLa cells was loaded on the first line (extract). MPM-2 antigenes were detected using the monoclonal anti MPM-2 antibody (mouse). GST-hPin1 was detected using an anti hPin1 PPIase domain antiserum (rabbit). Horseradish peroxidase-conjugated antibodies from mouse or rabbit were used as secondary antibodies. […]
1.3 mM of Peptide 17 or its nonphosphorylated derivative were incubated with GST-hPin1 (8 μM) for 2 hours at 4° C. […] Following SDS-PAGE, the samples were analyzed by western blot analysis. GST-hPin1 and coextracted MPM-2 antigens were detected using an anti hPin1 PPIase domain antiserum (rabbit) or monoclonal anti MPM-2 antibody (Upstate Biotechnology) from mouse. […]
MPM-2 antigens are mitotic phosphoproteins that are specifically recognized by the monoclonal antibody MPM-2. […] The coextracted MPM-2 antigenes were detected after SDS PAGE by western blot analysis using the anti MPM-2 antibody. […]

Which Ki ([1]; footnote b) (text of footnote not given), probably XlPin1) does the source give for `CC(=O)N[C@@H](Cc1ccccc1)C(=O)N[C@@H](C(=O)N1CCCC[C@H]1C(=O)N[C@@H](Cc1ccc2ccccc2c1)C(=O)N[C@@H](CCC(N)=O)C(N)=O)[C@H](C)OP(=O)(O)O` [Peptide 17, Ac-Phe-D-Thr(PO3H2)-Pip-Nal-Gln-NH2] (Ac-F[d(pT)][Pip][2Nal]Q-NH2) here?
The Ki was 34.4 nM.

And the “difference in affinity for recombinant Pin1 of both organisms” value ([1]; hPin1 versus XlPin1)?
The value was “no marked difference”.

What about the “influence on interaction of MPM-2 antigenes with GST-hPin1” value [2] of the same compound?
The value was “did not influence”.
